Assay results as given in patent publication US10328075B2, “Method of treatment and compounds for use therein” (Baker Heart and Diabetes Institute, priority 2015, dated 2019).
Where two headings read alike, the source gives them in different places.

What was measured:
Format in all cases: cell-based
[1] = system: mFpr1, mFpr2 expression in AMCF; assay: Fpr gene expression in adult mouse cardiac fibroblasts (real-time PCR); settings: 10 μM, 24 h incubation, TGF-β
Procedure: AMCFs were starved overnight in serum-free DMEM prior to incubation with the pro-fibrotic stimulus transforming growth factor TGF-β (10 ng/ml) for 24 h at 37° C. FPR agonists Cmpd17b, Cmpd43 (both 10 μM) or vehicle were present 30 min prior to TGF-β. At the end of 24 h stimulation, RNA was extracted and real-time PCR performed to determine the relative gene expression of CTGF and IL-1β, relative to housekeeping gene 18S, as described previously (5). Relative gene expression of mouse Fprs (mFpr1 and mFpr2, expressed as the threshold cycle number Ct subtracted from the maximum cycle number utilized, 40) was also determined at the end of 24 h stimulation.

hFPR1 = biological target: T1, hFPR1 (Homo sapiens, UniProt P21462); assay: ERK1/2 phosphorylation (AlphaScreen SureFire) in hFPR1-FlpIn-CHO cells
T1 construct: expressed in transfected cells
T1 sequence (P21462 1-350): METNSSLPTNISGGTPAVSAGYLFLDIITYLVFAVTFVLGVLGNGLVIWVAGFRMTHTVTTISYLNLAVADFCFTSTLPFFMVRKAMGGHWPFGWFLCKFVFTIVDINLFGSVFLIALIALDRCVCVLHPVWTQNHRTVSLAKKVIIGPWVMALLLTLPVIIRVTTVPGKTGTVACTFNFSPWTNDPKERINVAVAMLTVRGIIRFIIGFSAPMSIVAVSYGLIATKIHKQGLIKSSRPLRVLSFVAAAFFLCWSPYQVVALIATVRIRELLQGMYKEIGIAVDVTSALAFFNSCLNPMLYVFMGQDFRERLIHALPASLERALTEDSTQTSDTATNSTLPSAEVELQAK
From the text: (§1) cDNDA construct and generation of stable cell lines: cDNA in pcDNA3.1^+ encoding the human formyl peptide receptors (FPR) subtypes, hFPR1, hFPR2 and hFPR3 was obtained from Invitrogen. The sequences for 3 hFPR receptors were amplified by PCR and cloned into the Gateway entry vector, pDONR202™, using the BP clonase enzyme mix, according to the manufactures' instructions (Invitrogen Inc, Carlsbad, Calif., USA). All hFPR receptors constructs in pDONR201™ were subsequently transfected into the pEF5/FRT/V5/dest vector using the LR clonase enzyme mix (Invitrogen). Receptor constructs (pEF5/FRT/V5/dest) were used to transfect FIp-In CHO cells as described previously (Valant C et al., PNAS, 2014). Cells were selected using 500 μg/mL hydromycin to generate cell lines stably expressing each receptor construct. Cells were maintained and cultured in high glucose DMEM supplemented with 10% FBS, 16 mM HEPES and 500 μg/mL hydromycin at 37° C. under a humidified atmosphere containing 5% CO2.
(§2) In the various assays described below, cells were plated into 96-well transparent cell culture plates at 4×10^4 cells per well, cultured overnight in serum-free media at 37° C. in 5% CO2.
(§3) Measurement of extracellular signal regulated kinase 1 and 2 phosphorylation (pERK1/2): Initial ERK1/2 phosphorylation at Thr202/Tyr204 time-course experiments were performed to determine the time at which ERK1/2 phosphorylation was maximal after stimulation by each agonist. Cells were seeded onto transparent 96-well cell culture plates at 4×10^4 cells per well. After 6 h, cells were washed once with PBS, and then incubated in serum-free DMEM overnight, to allow FBS-stimulated phosphorylated ERK1/2 levels to subside. […] 10% (v/v) FBS was used as a positive control, with vehicle controls also included. The reaction was terminated by removal of study drugs and lysis of cells with 100 μL of SureFire lysis buffer (TGR Biosciences). Cell were lysed in SureFire lysis buffer and transferred to 384-well opaque proxiplates. Under low-light conditions, a 1:120 (v:v) dilution of AlphaScreen beads (both acceptor and donor):Surefire reaction buffer was prepared, which was mixed with the activation buffer in a ratio of 6:1 (v:v), respectively. Plates were incubated in the dark at 37° C. for 1 h before the fluorescence signal was measured by a Fusion-α plate reader (PerkinElmer Life and Analytical Sciences, Foster city, CA, USA) with standard AlphaScreen settings. Data were normalized to the maximal response elicited by 10% (v/v) FBS at the same time point.
(§4) Receptor mediated pERK1/2 levels were determined using the AlphaScreen™ ERK1/2 SureFire™ kit, as described previously (Keov, P et al., 2014). For all experiments, 10% FBS was used as internal positive control to stimulate pERK1/2, and which the maximum responses were used for normalization of data, whilst vehicle was used as negative control.
(§5) Data analysis: All data were analysed using GraphPad Prism 6.0 (GraphPad Software, San Deigo, Calif., USA). Where appropriate, concentration-response curves were fitted to derive the maximal agonist effect (Emax), and the ligand potency estimate (pEC50), where Emax is the maximal possible response of the system (not the agonist), basal is the basal level of response in the absence of agonist, and pEC50 is the negative logarithm of the agonist concentration that gives a response halfway between Emax and basal.
(§6) In the present study, FIp-IN CHO cells and Gateway plasmid were obtained from Invitrogen Inc (Carlsbad, Calif., USA). The sequences for all 3 known human FPRs (hFPR1, hFPR2 and hFPR3) were amplified by PCR and cloned into the Gateway entry vector, pDONR202TM, using the BP clonase enzyme mix, according to the manufacturers' instructions. The hFPR pDONR201TM constructs were subsequently transfected into the pEF5/FRT/V5/dest vector using the LR clonase enzyme mix (Invitrogen).

hFPR2 = biological target: T2, hFPR2 (Homo sapiens, UniProt P25090); assay: ERK1/2 phosphorylation (AlphaScreen SureFire) in hFPR2-FlpIn-CHO cells; settings: for Time of maximal ERK1/2 phosphorylation in hFPR2-CHO cells: 10 μM, pilot timecourse; for EC50: read-out: pEC50, ERK1/2 phosphorylation, hFPR2-Flpln-CHO (converted); for ΔLog(τ/KA), ERK1/2 phosphorylation, hFPR2-Flpln-CHO: normalized transduction coefficient, reference agonist Cmpd43; for Log(τ/KA), ERK1/2 phosphorylation, hFPR2-Flpln-CHO: transduction coefficient
T2 construct: expressed in transfected cells
T2 sequence (P25090 1-351): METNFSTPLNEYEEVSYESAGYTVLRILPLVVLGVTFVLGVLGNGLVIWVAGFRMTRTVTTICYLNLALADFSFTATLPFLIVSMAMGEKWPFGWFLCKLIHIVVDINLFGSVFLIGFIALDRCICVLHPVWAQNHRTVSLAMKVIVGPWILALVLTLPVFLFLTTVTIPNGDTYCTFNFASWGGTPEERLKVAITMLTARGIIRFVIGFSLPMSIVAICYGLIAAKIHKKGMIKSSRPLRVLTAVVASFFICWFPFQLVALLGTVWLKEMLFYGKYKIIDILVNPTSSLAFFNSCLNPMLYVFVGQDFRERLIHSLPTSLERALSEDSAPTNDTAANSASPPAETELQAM
From the text: as §1, §2, §3, §4, §5, §6

[2] = Table 9, read-out: potency (pEC50) pERK1/2, hFPR1-FlpInCHO cells in vitro (converted)
[3] = Table 2, percentage of ERK1/2 phosphorylation elicited by 10% FBS, read-out: Emax (%), ERK1/2 phosphorylation, hFPR2-Flpln-CHO
[4] = Table 8, percent of response elicited by 10% FBS, read-out: Emax, ERK1/2 phosphorylation, hFPR2-Flpln-CHO

SMILES	AMCF expression of mFpr1 [1]	EC50 (hFPR1; [2]) [nM]	Time of maximal ERK1/2 phosphorylation in hFPR2-CHO cells (hFPR2) [min]	Emax (hFPR2; [3]) [%]	ΔLog(τ/KA), ERK1/2 phosphorylation, hFPR2-Flpln-CHO (hFPR2; Table 8)	Emax (hFPR2; [4]) [%]	Log(τ/KA), ERK1/2 phosphorylation, hFPR2-Flpln-CHO (hFPR2; Table 8)	other results
COc1cccc(Cc2cc(C)nn(C(C)C(=O)Nc3ccc(Br)cc3)c2=O)c1 (centres unmarked) [BIDI-001, N-(4-bromophenyl)-2-[5-(3-methoxybenzyl)-3-methyl-6-oxo-6H-pyridazin-1-yl]-propionamide]	did not significantly influence							AMCF expression of mFpr2 [1]: did not significantly influence
CC(C)C1C(NC(=O)Nc2ccc(Cl)cc2)C(=O)N(c2ccccc2)N1C (centres unmarked) [BIDI-002]	restored	67.6	5	95 ± 4	0.0	95 ± 4	7.7 ± 0.2	Time of maximal ERK1/2 phosphorylation in hFPR1-CHO cells (hFPR1; 10 μM, pilot timecourse): 5 min; Emax (hFPR1; Table 2, percentage of ERK1/2 phosphorylation elicited by 10% FBS, read-out: Emax (%), ERK1/2 phosphorylation, hFPR1-Flpln-CHO): 61 ± 9%; EC50 (hFPR1; Table 2, read-out: pEC50, ERK1/2 phosphorylation, hFPR1-Flpln-CHO (converted)): 67.6 nM; ΔLog(τ/KA), ERK1/2 phosphorylation, hFPR1-Flpln-CHO (hFPR1; Table 8, normalized transduction coefficient, reference agonist Cmpd43): 0.0; Emax (hFPR1; Table 8, percent of response elicited by 10% FBS, read-out: Emax, ERK1/2 phosphorylation, hFPR1-Flpln-CHO): 61 ± 9%; EC50 (hFPR1; Table 8, read-out: pEC50, ERK1/2 phosphorylation, hFPR1-Flpln-CHO (converted)): 63.1 nM; Log(τ/KA), ERK1/2 phosphorylation, hFPR1-Flpln-CHO (hFPR1; Table 8, transduction coefficient): 7.3 ± 0.1; EC50 (hFPR2; Table 2): 55 nM; EC50 (hFPR2; Table 8): 50.1 nM
Cc1cc(Cc2cccnc2)c(=O)n(CC(=O)Nc2ccc(Cl)cc2)n1 [MIPS-0010396]		676						ERK Rmax (hFPR1; Table 10, receptor not given): 76 ± 2; EC50 (hFPR1; Table 10, receptor not given, values of 10394/10396 equal the hFPR1 values of Table 9, read-out: ERK pEC50 (converted)): 676 nM
CSCC[C@H](NC=O)C(=O)N[C@@H](CC(C)C)C(=O)N[C@@H](Cc1ccccc1)C(=O)O [fMLP, N-formyl-Met-Leu-Phe]			5	68 ± 11	−2.3 ± 0.2	68 ± 11	5.4 ± 0.1	
